In PubChem BioAssay AID306 (DTP/NCI, 2004):
“And” between values parts separate entries of the source, which are not always exact repeats. Equal entries are not always repeated. Toxic doses and inconclusive results are not listed.

Tested on: BDF1 mice, L1210 Methyl-GAG-resistant leukemia, survival T/C
Test: NCI In Vivo Anticancer Drug Screen. Data for tumor model L1210 Leukemia resistant to Methyl-GAG; NSC 32946 (subcutaneous) in B6D2F1 (BDF1) mice
Details: endpoint: mean survival time, higher = longer survival
Procedure: The antitumor activity of compounds was measured in mice bearing transplantable tumors. Survival or tumor size were measured and the results are expressed as the measurement made in the treated group (T) divided by the measurement made in the vehicle treated control group (C). The tumor model used in this assay is L1210 Leukemia resistant to Methyl-GAG; NSC 32946 (subcutaneous) in B6D2F1 (BDF1) mice

[1] = dose: 25.0 mg/kg/injection, schedule: Q01DX Z (sc), vehicle: steriod suspending solution
[2] = dose: 100.0 mg/kg/injection, schedule: Q01DX Z (sc), vehicle: steriod suspending solution
[3] = dose: 400.0 mg/kg/injection, schedule: Q01DX Z (sc), vehicle: steriod suspending solution

Structure (SMILES): CN(C)c1nc(N(C)C)nc(N(C)C)n1
- T/C (dose: 62.5 mg/kg/injection, schedule: Q01DX Z (ip), vehicle: carboxymethylcellulose (CMC)): 100 % of control
- T/C (dose: 125.0 mg/kg/injection, schedule: Q01DX Z (ip), vehicle: carboxymethylcellulose (CMC)): 95 % of control
- T/C (dose: 250.0 mg/kg/injection, schedule: Q01DX Z (ip), vehicle: carboxymethylcellulose (CMC)): 100 % of control
- T/C (dose: 500.0 mg/kg/injection, schedule: Q01DX Z (ip), vehicle: carboxymethylcellulose (CMC)): 100 % of control
- T/C (dose: 1000.0 mg/kg/injection, schedule: Q01DX Z (ip), vehicle: methylcellulose (MC)): 98 % of control

Structure (SMILES): C[C@]12CCC(=O)C=C1CC[C@@H]1[C@@H]2C(=O)C[C@@]2(C)[C@H]1CC[C@]2(O)C(=O)CO
- T/C (dose: 6.25 mg/kg/injection, schedule: Q01DX Z (sc), vehicle: steriod suspending solution): 100 % of control
- T/C [1]: 102 % of control
- T/C (dose: 62.5 mg/kg/injection, schedule: Q01DX Z (sc), vehicle: steriod suspending solution): 121 % of control
- T/C [2]: 113 % of control
- T/C [3]: 116 % of control

Structure (SMILES): Clc1ccc(C(c2ccccc2Cl)C(Cl)Cl)cc1 (centres undefined)
- T/C (dose: 12.5 mg/kg/injection, schedule: Q01DX Z (sc), vehicle: steriod suspending solution): 105 % of control
- T/C [1]: 102 % of control
- T/C (dose: 50.0 mg/kg/injection, schedule: Q01DX Z (sc), vehicle: steriod suspending solution): 98 % of control
- T/C [2]: 100 % of control
- T/C (dose: 200.0 mg/kg/injection, schedule: Q01DX Z (sc), vehicle: steriod suspending solution): 105 % of control
- T/C [3]: 101 % of control
- T/C (dose: 800.0 mg/kg/injection, schedule: Q01DX Z (sc), vehicle: steriod suspending solution): 109 % of control

Structure (SMILES): O=C(Nc1ccc(C2=NCCCN2)cc1)c1ccc(NC(=O)c2ccc(C3=NCCCN3)cc2)cc1
- T/C (dose: 0.24 mg/kg/injection, schedule: Q01DX Z (ip), vehicle: carboxymethylcellulose (CMC)): 97 % of control
- T/C (dose: 0.47 mg/kg/injection, schedule: Q01DX Z (ip), vehicle: carboxymethylcellulose (CMC)): 101 % of control
- T/C (dose: 0.95 mg/kg/injection, schedule: Q01DX Z (ip), vehicle: carboxymethylcellulose (CMC)): 104 % of control
- T/C (dose: 1.9 mg/kg/injection, schedule: Q01DX Z (ip), vehicle: carboxymethylcellulose (CMC)): 98 % of control
- T/C (dose: 1.95 mg/kg/injection, schedule: Q01DX Z (ip), vehicle: carboxymethylcellulose (CMC)): 175 % of control and 192 % of control
- T/C (dose: 3.9 mg/kg/injection, schedule: Q01DX Z (ip), vehicle: carboxymethylcellulose (CMC)): 169 % of control and 232 % of control
- T/C (dose: 7.8 mg/kg/injection, schedule: Q01DX Z (ip), vehicle: carboxymethylcellulose (CMC)): 216 % of control
- T/C (dose: 15.6 mg/kg/injection, schedule: Q01DX Z (ip), vehicle: carboxymethylcellulose (CMC)): 112 % of control and 122 % of control

Structure (SMILES): C1CN1c1nc(N2CC2)nc(N2CC2)n1
- T/C (dose: 62.5 micrograms/kg/injection, schedule: Q01DX Z (ip), vehicle: saline): 96 % of control
- T/C (dose: 250.0 micrograms/kg/injection, schedule: Q01DX Z (ip), vehicle: saline): 97 % of control
- T/C (dose: 1000.0 micrograms/kg/injection, schedule: Q01DX Z (ip), vehicle: saline): 110 % of control

Structure (SMILES): CCC(=O)O[C@H]1CC[C@H]2[C@@H]3CCC4=CC(=O)CC[C@]4(C)[C@H]3CC[C@]12C
- T/C (dose: 37.5 mg/kg/injection, schedule: Q01DX Z (sc), vehicle: steriod suspending solution): 101 % of control
- T/C (dose: 60.0 mg/kg/injection, schedule: Q01DX Z (sc), vehicle: steriod suspending solution): 120 % of control
- T/C (dose: 75.0 mg/kg/injection, schedule: Q01DX Z (sc), vehicle: steriod suspending solution): 104 % of control
- T/C (dose: 150.0 mg/kg/injection, schedule: Q01DX Z (sc), vehicle: steriod suspending solution): 98 % of control
- T/C (dose: 300.0 mg/kg/injection, schedule: Q01DX Z (sc), vehicle: steriod suspending solution): 98 % of control and 119 % of control
- T/C (dose: 1500.0 mg/kg/injection, schedule: Q01DX Z (sc), vehicle: steriod suspending solution): 96 % of control

Structure (SMILES): Nc1nc(=S)c2[nH]cnc2[nH]1
- T/C (dose: 0.12 mg/kg/injection, schedule: Q01DX Z (ip), vehicle: carboxymethylcellulose (CMC)): 98 % of control
- T/C (dose: 0.25 mg/kg/injection, schedule: Q01DX Z (ip), vehicle: carboxymethylcellulose (CMC)): 93 % of control
- T/C (dose: 0.5 mg/kg/injection, schedule: Q01DX Z (ip), vehicle: carboxymethylcellulose (CMC)): 96 % of control
- T/C (dose: 2.0 mg/kg/injection, schedule: Q01DX Z (ip), vehicle: carboxymethylcellulose (CMC)): 164 % of control and 168 % of control
- T/C (dose: 4.0 mg/kg/injection, schedule: Q01DX Z (ip), vehicle: carboxymethylcellulose (CMC)): 118 % of control

Structure (SMILES): CN(C)c1ccc(/C=C\c2ccnc3ccccc23)cc1
- T/C (dose: 0.4 mg/kg/injection, schedule: Q01DX Z (ip), vehicle: water): 97 % of control and 107 % of control
- T/C (dose: 0.8 mg/kg/injection, schedule: Q01DX Z (ip), vehicle: water): 89 % of control and 105 % of control
- T/C (dose: 1.6 mg/kg/injection, schedule: Q01DX Z (ip), vehicle: water): 104 % of control
- T/C (dose: 3.1 mg/kg/injection, schedule: Q01DX Z (ip), vehicle: water): 101 % of control
- T/C (dose: 6.25 mg/kg/injection, schedule: Q01DX Z (ip), vehicle: water): 90 % of control
- T/C (dose: 12.5 mg/kg/injection, schedule: Q01DX Z (ip), vehicle: water): 95 % of control
- T/C (dose: 25.0 mg/kg/injection, schedule: Q01DX Z (ip), vehicle: water): 104 % of control
- T/C (dose: 50.0 mg/kg/injection, schedule: Q01DX Z (ip), vehicle: water): 97 % of control and 107 % of control

Structure (SMILES): CS(=O)(=O)OCC(O)C(O)COS(C)(=O)=O (centres undefined)
- T/C (dose: 99.0 mg/kg/injection, schedule: Q01DX Z (ip), vehicle: saline): 101 % of control
- T/C (dose: 188.0 mg/kg/injection, schedule: Q01DX Z (ip), vehicle: saline): 101 % of control
- T/C (dose: 375.0 mg/kg/injection, schedule: Q01DX Z (ip), vehicle: saline): 101 % of control
- T/C (dose: 750.0 mg/kg/injection, schedule: Q01DX Z (ip), vehicle: saline): 117 % of control and 120 % of control
- T/C (dose: 1500.0 mg/kg/injection, schedule: Q01DX Z (ip), vehicle: saline): 109 % of control and 120 % of control
- T/C (dose: 3000.0 mg/kg/injection, schedule: Q01DX Z (ip), vehicle: saline): 112 % of control

Structure (SMILES): O=c1cnn(C2OC(CO)C(O)C2O)c(=O)[nH]1 (centres undefined)
- T/C (dose: 8.0 mg/kg/injection, schedule: Q01DX Z (ip), vehicle: water): 112 % of control
- T/C (dose: 16.0 mg/kg/injection, schedule: Q01DX Z (ip), vehicle: water): 122 % of control
- T/C (dose: 1000.0 mg/kg/injection, schedule: Q01DX Z (ip), vehicle: water): 110 % of control

Structure (SMILES): Cn1cnc([N+](=O)[O-])c1Sc1ncnc2nc[nH]c12
- T/C (dose: 12.5 mg/kg/injection, schedule: Q01DX Z (ip), vehicle: carboxymethylcellulose (CMC)): 105 % of control
- T/C (dose: 25.0 mg/kg/injection, schedule: Q01DX Z (ip), vehicle: carboxymethylcellulose (CMC)): 103 % of control
- T/C (dose: 50.0 mg/kg/injection, schedule: Q01DX Z (ip), vehicle: carboxymethylcellulose (CMC)): 124 % of control
- T/C (dose: 100.0 mg/kg/injection, schedule: Q01DX Z (ip), vehicle: carboxymethylcellulose (CMC)): 88 % of control

Structure (SMILES): S=c1nc[nH]c2nc[nH]c12
- T/C (dose: 12.5 mg/kg/injection, schedule: Q01DX Z (ip), vehicle: other): 107 % of control
- T/C (dose: 37.5 mg/kg/injection, schedule: Q01DX Z (ip), vehicle: other): 252 % of control
- T/C (dose: 50.0 mg/kg/injection, schedule: Q01DX Z (ip), vehicle: other): 153 % of control and 192 % of control
- T/C (dose: 75.0 mg/kg/injection, schedule: Q01DX Z (ip), vehicle: other): 157 % of control
- T/C (dose: 100.0 mg/kg/injection, schedule: Q01DX Z (ip), vehicle: other): 164 % of control
- T/C (dose: 200.0 mg/kg/injection, schedule: Q01DX Z (ip), vehicle: other): 97 % of control and 119 % of control
- T/C (dose: 300.0 mg/kg/injection, schedule: Q01DX Z (ip), vehicle: other): 98 % of control

Structure (SMILES): C[C@H]1C(=O)O[C@@H]2CCN3CC=C(COC(=O)[C@](C)(O)[C@@]1(C)O)[C@H]23
- T/C (dose: 1.88 mg/kg/injection, schedule: Q01DX Z (ip), vehicle: carboxymethylcellulose (CMC)): 94 % of control
- T/C (dose: 3.75 mg/kg/injection, schedule: Q01DX Z (ip), vehicle: carboxymethylcellulose (CMC)): 96 % of control
- T/C (dose: 7.5 mg/kg/injection, schedule: Q01DX Z (ip), vehicle: carboxymethylcellulose (CMC)): 92 % of control
- T/C (dose: 15.0 mg/kg/injection, schedule: Q01DX Z (ip), vehicle: carboxymethylcellulose (CMC)): 92 % of control and 99 % of control
- T/C (dose: 30.0 mg/kg/injection, schedule: Q01DX Z (ip), vehicle: carboxymethylcellulose (CMC)): 105 % of control
- T/C (dose: 60.0 mg/kg/injection, schedule: Q01DX Z (ip), vehicle: carboxymethylcellulose (CMC)): 106 % of control
- T/C (dose: 120.0 mg/kg/injection, schedule: Q01DX Z (ip), vehicle: carboxymethylcellulose (CMC)): 113 % of control
